From US20180258404A1, “METHODS OF GENERATING NEPHRONS FROM HUMAN PLURIPOTENT STEM CELLS” (THE BRIGHAM AND WOMEN'S HOSPITAL, INC., priority 2015, published 2018)

Legend:
kidney organoids = assay: Aristolochic acid toxicity and nephroprotection model in kidney organoids; assay type: cell-based, human; settings: for PGC-1a expression (real-time quantitative PCR): AA alone or AA with cilostamide
Excerpt: FIG. 34. […] Representative immunohistochemistry of aristolochic acid (AA) and tenofovir (TFV) treatments. Day 32 Kg-derived organoids. Al/AA treatments for 24H, while all TFV treatments for 48 H. Scale bars, 50 gm. Quantification determined as a percentage of DAP/+ cells. n=3, total DAP/+>1000 for each treatment. (*) indicates p-value<0.05.
FIG. 35. OAT1 inhibition by probenecid protects proximal tubules against AA toxicity. Representative immunohistochemistry of probenecid treatments with AA 2.5 gg/mL. Day 38 Kg-derived organoids. All treatments for 48 H. Scale bars, 50 um. Quantification determined as a percentage of DAPI+ cells. n=3, total DAPI+>1000 for each treatment. (*) indicates p-value<0.05.
FIG. 36. […] Representative immunohistochemistry of cilostamide and sildenafi/treatments with AA 2.5 gg/mL. Day 38 H9-derived organoids. All treatments for 48 H. Scale bars, 50 gm. Quantification determined as a percentage of DAPI+ cells. n=3, total DAPI+>1000 for each treatment. (*) indicates p-value<0.05.
FIG. 37. Real-time quantitative PCR mRNA was extracted from organoid samples and confirmed with Nanodrop. cDNA library Was generated by reverse transcription. AQP-I is prominently expressed on proximal tubules. PGC1-a is the master regulator of mitochondrial biogenesis.

[1] = system: 3D hESC-derived kidney organoids; assay: Nephrotoxicity assay in 3D kidney organoids; assay type: cell-based, human
Method: Organoids were then fixed with 4% paraformaldehyde (Electron Microscopy Sciences, #RT15710) for 20 minutes for both whole-mount and frozen section immunohistochemistry.
3D kidney organoids were fixed with 4% paraformaldehyde in PBS for 20 minutes at RT in a 96-well plate, then washed three times in PBS. The organoids were then incubated in blocking buffer (0.3% Triton X-100 and 5% normal donkey serum) for 1 hour at RT, then washed three times in PBS. The organoids were incubated with primary antibodies in antibody dilution buffer (0.3% Triton X-100 and 1% BSA in PBS) overnight at 4° C. The organoids were then washed with PBS three times for 1 hour each, with the third washing performed overnight at 4° C. For immunostaining with biotinylated LTL (Vector Labs, #B-1325), a Streptavidin/Biotin Blocking Kit (Vector Labs, #SP-2002) was used according to the manufacturer's protocol. The organoids were incubated with secondary antibodies in antibody dilution buffer for 1 hour at RT, then washed with PBS three times for 30 minutes each. Nuclei were counterstained with DAPI for more than 30 minutes. […]
Total RNA was purified from cells using the RNAeasy MiniKit (Qiagen). […] Quantitative RT-PCR was performed using the iQ5 Multicolor Real-Time PCR Detection System (Bio-Rad). […] Values were calculated by the delta delta CT method. […]

H9 hESCs = assay: Differentiation of hESCs into posterior intermediate mesoderm; assay type: cell-based, human; settings: for WT1 expression on day 7: added to CHIR in the first step, hESCs
Method: (§1) hPSCs grown on Geltrex were washed once with PBS (Life Technologies, #10010-049) and dissociated into single cells with Accutase ([…] Technologies, #07920). Cells were then plated at a density of 2-2.4×10^4 (H9) or 1-1.4×10^4 (HDF, 2C) cells/cm^2 onto 24-well tissue culture plates (TPP, #92024) coated with 1% Geltrex in ReproFF2 supplemented with the ROCK inhibitor Y27632 (10 μM) (TOCRIS, #1254) and FGF2 (10 ng/ml). After 72 hours, cells (50% confluent) were briefly washed in PBS and then cultured in basic differentiation medium consisting of Advanced RPMI 1640 (Life Technologies, #12633-020) and 1X L-GlutaMAX (Life Technologies, #35050-061) supplemented with CHIR99021 (8-10 μM) (TOCRIS, #4423) for 4 days to induce late primitive streak cells Noggin (5 ng/ml) was also used for hiPSC differentiation in addition to CHIR (10 μM). To induce posterior intermediate mesoderm, cells were then cultured in Advanced RPMI+1X L-GlutaMAX+activin (10 ng/mL) (R&D, #338-AC-050) for 3 days. For induction of nephron progenitor cells, the media was then changed to Advanced RPMI+1X L-GlutaMAX+FGF9 (10 ng/ml) (R&D, #273-F9-025/CF) for 7 days. CHIR (3 μM) was added to the media from day 9 to 11 of differentiation to induce renal vesicles. On day 14, cells were switched to the basic differentiation medium and cultured for an additional 7 to 14 days (total of 21 to 28 days). The medium was replaced every 2 or 3 days. A variety of growth factors and small molecules were tested for differentiation.
PAX2 and LHX1 were not expressed (FIG. 1f), confirming that activin treatment of late primitive streak cells produced posterior and not anterior IM cells.
As the posterior primitive streak is induced by a BMP4 signal gradient, the Inventors hypothesized that CHIR treatment of HDF-α hiPSCs might induce endogenous BMP4 production that promotes differentiation into the posterior primitive streak and subsequently lateral plate mesoderm. […] Optimizing the protocol for individual cell lines based on their endogenous BMP4 production maximized the efficiency of generating posterior IM.

HDF-α hiPSCs = assay: Differentiation of hiPSCs into posterior intermediate mesoderm; assay type: cell-based, human
Method: as §1, with “The medium was replaced every 2 or 3 days. A variety of growth factors and small molecules were tested for differentiation.” left out

Excerpt for podocytes: Modeling glomerular diseases. The Inventors used puromycin and adriamycin which is known to induce FSGS (focal-segmental glomerulosclerosis).

COc1cccc2c1cc([N+](=O)[O-])c1c(C(=O)O)cc3c(c12)OCO3 [AA, aristolochic acid]
PGC-1a expression (real-time quantitative PCR) (kidney organoids): downregulated | kidney damage biomarkers by immunohistochemistry (kidney organoids; AA treatments for 24H, day 32 organoids): dose-dependent upregulation of kidney damage biomarkers

CCCN(CCC)S(=O)(=O)c1ccc(C(=O)O)cc1 [Probenecid, probenecid]
nephroprotection against AA (kidney organoids; Probenecid 10 LIM with AA 2.5 gg/mL, 48 H, day 38 organoids): provided strongest nephroprotection against AA | damage to organoids (kidney organoids; probenecid alone, 48 H, day 38 organoids): causes no damage to organoids

COc1cccc2c1C(=O)c1c(O)c3c(c(O)c1C2=O)C[C@@](O)(C(=O)CO)C[C@@H]3O[C@H]1C[C@H](N)[C@H](O)[C@H](C)O1 [adriamycin]
structures of podocytes (podocytes): the structures of podocytes were disrupted

CN(C(=O)CCCOc1ccc2[nH]c(=O)ccc2c1)C1CCCCC1 [cilostamide]
PGC-1a expression (real-time quantitative PCR) (kidney organoids): protected | nephroprotection against AA (real-time quantitative PCR, AQP-I) (kidney organoids; cilostamide with AA): dose-dependent nephroprotection against AA, significant preservation of proximal tubules | mitochondrial biogenesis and protection (kidney organoids; cilostamide with AA 2.5 gg/mL, 48 H, day 38 H9-derived organoids): increases mitochondrial biogenesis and protection in AA-toxicity model

COc1ccc(C[C@H](N)C(=O)N[C@H]2[C@@H](O)[C@H](n3cnc4c(N(C)C)ncnc43)O[C@@H]2CO)cc1 [puromycin]
structures of podocytes (podocytes): the structures of podocytes were disrupted

gentamicin
KIM-1 expression by immunostaining (whole mount and frozen sections) ([1]; gentamicin 5 mg/mL for 48 hours after day 21): clear KIM-1 expression at the luminal surface of LTL+tubules but not in E-cadherin+ tubules | KIM-1 by real-time PCR ([1]; gentamicin 5×10^−4, 5×10^−2, or 5 mg/mL for 48 hours): KIM-1 upregulation by gentamicin in a dose-dependent manner

B1: BMP4: growth factor; posteriorizes the primitive streak (protein, UniProt P12644 293-408, looked up)
Bone morphogenetic protein 4: SPKHHSQRARKKNKNCRRHSLYVDFSDVGWNDWIVAPPGYQAFYCHGDCPFPLADHLNSTNHAIVQTLVNSVNSSIPKACCVPTELSAISMLYLDEYDKVVLKNYQEMVVEGCGCR
FOXF1 expression at day 4 (H9 hESCs; BMP4 1 ng/mL added to CHIR): resulted in FOXF1 expression at day 4 | WT1 expression on day 7 (H9 hESCs): suppression of WT1 expression on day 7

B2: noggin: a BMP4 signaling antagonist (protein, UniProt Q13253 28-232, looked up)
Noggin: QHYLHIRPAPSDNLPLVDLIEHPDPIFDPKEKDLNETLLRSLLGGHYDPGFMATSPPEDRPGGGGGAAGGAEDLAELDQLLRQRPSGAMPSEIKGLEFSEGLAQGKKQRLSKKLRRKLQMWLWSQTFCPVLYAWNDLGSRFWPRYVKVGSCFSKRSCSVPEGMVCKPSKSVHLTVLRWRCQRRGGQRCGWIPIQYPIISECKCSC
WT1 expression on day 7 (H9 hESCs): significantly suppressed WT1 expression on day 7 | T, TBX6 and FOXF1 expression on day 4 (HDF-α hiPSCs; noggin 5 ng/mL with CHIR in the first step of differentiation): expressed T and TBX6 but not FOXF1 on day 4

B3: activin: growth factor used to induce posterior intermediate mesoderm (protein, UniProt P08476 311-426, looked up)
Inhibin beta A chain: GLECDGKVNICCKKQFFVSFKDIGWNDWIIAPSGYHANYCEGECPSHIAGTSGSSLSFHSTVINHYRMRGHSPFANLKSCCVPTKLRPMSMLYYDDGQNIIKKDIQNMIVEECGCS
modifications: Inhibin beta A chain
notes: growth factor used to induce posterior intermediate mesoderm
efficiency of induction of WT1+HOXD11+ cells (H9 hESCs; activin 10 ng/mL between days 4 and 7, after CHIR 8 μM for 4 days): ~90% | efficiency of generation of WT1+HOXD11+ posterior IM cells (HDF-α hiPSCs; activin after CHIR plus noggin 5 ng/mL in the first step): 80-90%
